What was measured:
[1] = Temperature rise under near infrared radiation; assay type: physicochemical; conditions: 100 mmol in agarose; near infrared 600 nm to 1600 nm, 10 W
Procedure: Next, a diatomic Fe salen complex compound (CAS#14167-12-5; produced by Tokyo Chemical Industry Co., Ltd.) was dissolved in agarose to produce a 100 mmol solution, which was put in a test tube, thereby preparing a sample. A sample of pure water put in a test tube was also prepared as a comparison. Then, these samples were respectively exposed to medical near infrared radiation (wavelengths: 600 nm to 1600 nm) by TOKYO IKEN CO., LTD. by using Super Lizer PX Type I (output: 10 W).

[2] = tested on: rat L6 cell; assay: Rat L6 cell culture with bar magnet, cell count proximal vs distal to the magnet; assay type: cell-based; conditions: after 48 hours, bar magnet at flask
Procedure: Culture medium was sprinkled with metal-salen complex compound powder, which is obtained with respect to each of the Fe salen complex compound, the Mn salen complex compound, the Cr salen complex compound, and the Co salen complex compound by the above-described method, in amounts allowing magnetic attraction to be visibly observed at a rat L6 cell confluence of 30%, and the state of the medium was photographed after 48 hours.
Then, after 48 hours, the bottom face of the rectangular flask was photographed from one end to the other, and the cell count was calculated. Incidentally, Referring to FIG. 8, a “position proximal to the magnet” means within a projection area of the magnet end surface at the bottom of the rectangular flask, and a “position distal to the magnet” means a region on the side opposite the magnet end surface at the bottom of the rectangular flask.
As a result, the magnetic drugs and the system equipped with magnetism-generating means according to the present invention can thus allow the drugs to become concentrated in target tissues and tissues of individuals.

[3] = Temperature rise of ointments under AC magnetic field; assay type: physicochemical; conditions: AC field 258 A, 400 kHz, 51.74 mT; for temperature rise of ointment: 300 seconds
Procedure: The aforementioned Fe salen complex compound was mixed with Vaseline, which is an adjuster for ointments, as a base at concentrations of 100 mmol and 200 mmol, respectively, to produce ointments. Then, the relationship between time and a temperature rise was measured by applying an AC magnetic field to these ointments under conditions of 258 A, 400 kHz, and 51.74 mT.
Then, the compound expressed by the aforementioned Formula (I) was mixed with Kenalog, which is an ointment for stomatitis, as a base at concentrations of 100 mmol and 200 mmol, respectively, to produce ointments. Then, the relationship between time and a temperature rise was measured by applying an AC magnetic field to these ointments under conditions of 258 A, 400 kHz, and 51.74 mT.
Next, as comparisons, the relationship between time and a temperature rise was measured by applying an AC magnetic field to each of 200 mg Vaseline and 200 mg Kenalog under conditions of 258 A, 400 kHz, and 51.74 mT.

[4] = tested on: Clone M3 melanoma cells; assay: Melanoma growth in mouse tail with local magnetic field; assay type: in vivo; conditions: for melanoma extension (area of melanoma pigmentation): 12 days after initial injection, saline group 100%; for histological examination, tumor expansion of melanoma: HE, anti-Ki-67, anti-Cyclyn D1 staining
Procedure: Melanoma was established in mouse tails in vivo by local grafting of cultured melanoma cells (Clone M3 melanoma cells). Incidentally, FIG. 11(1) is a photograph showing the effects of a saline group (saline) into which the saline water was injected instead of the Fe salen complex compound; FIG. 11(2) is a photograph showing the effects of a group (SC) into which the Fe salen complex compound was injected without applying the magnetic field; and FIG. 11(3) is a photograph showing the effect of a group (SC+Mag) into which the Fe salen complex compound was injected while applying the magnetic field (n=7-10).
The Fe salen complex compound (50 mg/kg) was administered intravenously via tail vein, followed by local application of a magnetic field by the use of a commercially available bar magnet (630 mT, a cylindrical neodymium magnet, 150 mm long and 20 mm in diameter). Application of a bar magnet was performed with 3 hour gentle contact with the site of melanoma immediately after injection of the Fe salen complex compound for 10-14 days.
Application of the bar magnet was performed in such a way so that the magnetic field strength became maximal over the area of expected melanoma extension, which was approximately […] or shorter in a mouse tail for a growth period of 2 weeks. Twelve days after the initial injection of the Fe salen complex compound, the extension of melanoma was evaluated by assessing the area of melanoma pigmentation.
A histological examination was performed as shown in FIG. 13 by means of Hematoxylin-Eosin staining and immuno-histochemical staining with an anti-Ki-67 antibody and an anti-Cyclyn D1 antibody which are both tumor proliferation markers in tissue sections.

[5] = Magnetic field-magnetization curve (MPMS7); assay type: physicochemical; conditions: magnetic field less than 10000 Oe (1 T); 37 degrees Celsius
Source text: However, when the magnetic field exceeds 10000 Oe (1 T), the Co salen complex compound or the Mn salen complex compound has large magnetization and is most suited for magnetic induction drug delivery systems which use superconducting magnets.

[6] = Magnetic guidance of i.v. drug to right kidney, SNR by MRI; assay type: in vivo; conditions: mouse, intravenous; about 0.3 T at right kidney; after 10 minutes; vs left kidney and control
Source text: Next, an guidance example using a guidance system will be described. […] The metal plate 236, especially an iron plate, is placed between the pair of magnets 230 and 232 so that a magnetic field of locally uniform and strong strength can be created. An electrical magnet can be used instead of a magnet to modify the magnetic force generated in this guidance system. The magnetism-generating means can be moved to a target position of the individual on a table to allow the pair of magnetism-generating means to move in the X, Y, and Z directions. The tissue of an individual can be placed in the region of the magnetic field to concentrate the drug in the tissue.
More specifically, for example, the aforementioned Fe salen complex compound (drug concentration: 5 mg/mL (15 mM)) was injected intravenously into a mouse weighing about 30 g, a laparotomy was performed, and the mouse was placed on the iron plate 236 to locate its right kidney between the pair of magnets 230 and 232. […]
Together with the left kidney and a kidney to which no field was applied (control), a magnetic field was applied to the right kidney of the mouse; and after 10 minutes the SNR was measured by MRI in T1 mode and T2 mode.

Structure (SMILES) | temperature of sample 300 seconds later [1] | temperature of sample immediately after the measurement (0 second) [1] [degrees Celsius] | number of cells at position proximal to the magnet vs position distal to the magnet [2] | temperature of ointment immediately after the measurement (0 second) ([3]; Kenalog base, 100 mmol) [degrees Celsius] | temperature rise of ointment ([3]; Kenalog base, 200 mmol) | temperature of ointment immediately after the measurement (0 second) ([3]; Kenalog base, 200 mmol) [degrees Celsius] | temperature of ointment immediately after the measurement (0 second) ([3]; Vaseline base, 100 mmol) [degrees Celsius] | temperature rise of ointment ([3]; Vaseline base, 200 mmol) | temperature of ointment immediately after the measurement (0 second) ([3]; Vaseline base, 200 mmol) [degrees Celsius] | melanoma extension (area of melanoma pigmentation) ([4]; SC group: 50 mg/kg i.v., no magnetic field) [%] | melanoma extension (area of melanoma pigmentation) ([4]; SC+Mag group: 50 mg/kg i.v. plus bar magnet 630 mT, 3 hour) [%] | histological examination, tumor expansion of melanoma ([4]; SC, no magnetic field) | histological examination, tumor expansion of melanoma ([4]; with magnetic force field application) | magnetization [5] | drug retention in right kidney (SNR by MRI, T1 and T2 mode) [6]
Oc1ccccc1C=NCCN=Cc1ccccc1O.[Fe+2] [diatomic Fe salen complex compound] | approximately 53 degrees Celsius | 26 |  |  |  |  |  |  |  |  |  |  |  |  | 
[Fe+2].[O-]c1ccccc1C=NCCN=Cc1ccccc1[O-] [Fe salen complex compound] |  |  | dramatically lower number of cells | 35 | approximately 5 degrees Celsius | 35 | 35 | approximately 5 degrees Celsius | 35 | 63.68±16.3 | 9.05±3.42 | tumor expansion of melanoma diminished | mostly disappeared | largest magnetization | possible to make the drug stay in the right kidney
